This note sets out measurements from ChEMBL document CHEMBL3585328, “Colloidal and antibacterial properties of novel triple-headed, double-tailed amphiphiles: exploring structure-activity relationships and synergistic mixtures” (Bioorg Med Chem, 2015).

Series [1] concerns Bacillus cereus. The experiment in a line: Antibacterial activity against Bacillus cereus assessed as inhibition of bacterial growth incubated for 72 hrs by CLSI based method. Format: functional.
The subject of series [2] is Streptococcus agalactiae. The experiment in a line: Antibacterial activity against Streptococcus agalactiae J48 assessed as inhibition of bacterial growth incubated for 72 hrs by CLSI based method. Format: functional. As to conditions: J48, 72 h.
The subject of series [3] is Pseudomonas aeruginosa. Description: Antibacterial activity against Pseudomonas aeruginosa ATCC 27853 assessed as inhibition of bacterial growth incubated for 72 hrs by CLSI based method. It is filed as functional. To be noted: ATCC 27853, 72 h.
For series [4], the system named is Pseudomonas aeruginosa. Description: Bactericidal activity against Pseudomonas aeruginosa ATCC 27853 assessed as inhibition of bacterial growth incubated for 72 hrs followed by culture growth in Todd-Hewitt agar medium and incubated for 24 hrs at 37 degC. It is filed as functional, organism-based.
The test system of series [5] is Escherichia coli. The experiment in a line: Bactericidal activity against Escherichia coli ATCC 25922 assessed as inhibition of bacterial growth incubated for 72 hrs followed by culture growth in Todd-Hewitt agar medium and incubated for 24 hrs at 37 degC. It is filed as functional, organism-based.
The subject of series [6] is Staphylococcus aureus. The experiment in a line: Bactericidal activity against Staphylococcus aureus subsp. aureus ATCC 29213 assessed as inhibition of bacterial growth incubated for 72 hrs followed by culture growth in Todd-Hewitt agar medium and incubated for 24 hrs at 37 degC. Format: functional, organism-based.
Series [7] deals with Bacillus cereus. Description: Bactericidal activity against Bacillus cereus assessed as inhibition of bacterial growth incubated for 72 hrs followed by culture growth in Todd-Hewitt agar medium and incubated for 24 hrs at 37 degC. It is filed as functional, organism-based.
Series [8] can be described thus: Critical aggregation concentration by at 37 degC isothermal titration calorimetry method. Format: ADME. On the technique in general: ITC needs no label: the signal is the heat of the interaction.
The test system of series [9] is Enterococcus faecalis. The experiment in a line: Bactericidal activity against Enterococcus faecalis ATCC 29212 assessed as inhibition of bacterial growth incubated for 72 hrs followed by culture growth in Todd-Hewitt agar medium and incubated for 24 hrs at 37 degC. It is filed as functional, organism-based.
Series [10] has as its system Streptococcus agalactiae. Description: Bactericidal activity against Streptococcus agalactiae J48 assessed as inhibition of bacterial growth incubated for 72 hrs followed by culture growth in Todd-Hewitt agar medium and incubated for 24 hrs at 37 degC. It is filed as functional, organism-based.
In series [11] the test system is Enterococcus faecalis. The experiment in a line: Antibacterial activity against Enterococcus faecalis ATCC 29212 assessed as inhibition of bacterial growth incubated for 72 hrs by CLSI based method. As to conditions: ATCC 29212, 72 h. It is filed as functional.
Series [12] deals with Escherichia coli. Description: Antibacterial activity against Escherichia coli ATCC 25922 assessed as inhibition of bacterial growth incubated for 72 hrs by CLSI based method. It is filed as functional. To be noted: ATCC 25922, 72 h.
In series [13] the test system is Staphylococcus aureus. The experiment in a line: Antibacterial activity against Staphylococcus aureus subsp. aureus ATCC 29213 assessed as inhibition of bacterial growth incubated for 72 hrs by CLSI based method. Format: functional. As to conditions: ATCC 29213, 72 h.

The MIC is the least concentration at which growth counts as inhibited.

SMILES strings stand for the structures. In brackets after ≈: the same amount, converted by molar mass. Activity calls are given as the source filed them. No cut-off for these calls is given here.

For `CCCCCCCCCCCC[N+](C)(C)Cc1cc(C[n+]2ccccc2)cc(C[N+](C)(C)CCCCCCCCCCCC)c1.[Br-].[Br-].[Br-]`, the minimum inhibitory concentration (MIC) was 2 µM in the series with Bacillus cereus [1]; 1 µM with Streptococcus agalactiae [2]; 8 µM in the series with Pseudomonas aeruginosa [3]; 2 µM with Enterococcus faecalis [11]; 4 µM with Escherichia coli [12]; 2 µM with Staphylococcus aureus [13]. Also, the outcome with Pseudomonas aeruginosa [4], in the series with Escherichia coli [5], with Staphylococcus aureus [6], in the series with Bacillus cereus [7], in the series on Enterococcus faecalis [9] and with Streptococcus agalactiae [10] was Active. In series [8], this molecule registered a CAC of 2.4 mM.

With `CCCCCCCCCCCC[N+](C)(C)Cc1cc(C[N+](C)(C)C)cc(C[N+](C)(C)CCCCCCCCCCCC)c1.[Br-].[Br-].[Br-]`, the MIC in the series with Bacillus cereus [1] came out at 2 µM; in the series on Streptococcus agalactiae [2], 2 µM; in the series with Pseudomonas aeruginosa [3], 16 µM; in the series with Enterococcus faecalis [11], 2 µM; in the series with Escherichia coli [12] it was 4 µM; with Staphylococcus aureus [13], 2 µM. The result with Pseudomonas aeruginosa [4], in the series with Escherichia coli [5], with Staphylococcus aureus [6], in the series on Bacillus cereus [7], in the series with Enterococcus faecalis [9] and with Streptococcus agalactiae [10] was Active. In series [8], this molecule displayed a CAC of 2.5 mM.

For `CCCCCCCCCC[N+](C)(C)Cc1cc(C[N+](C)(C)C)cc(C[N+](C)(C)CCCCCCCCCC)c1.[Br-].[Br-].[Br-]`, the minimum inhibitory concentration (MIC) in the series with Bacillus cereus [1] is 8 µM; in the series on Streptococcus agalactiae [2] it was 4 µM; with Pseudomonas aeruginosa [3] it was above 250 µM; with Enterococcus faecalis [11], 8 µM; in the series on Escherichia coli [12], 125 µM; with Staphylococcus aureus [13], 16 µM. The outcome in the series on Pseudomonas aeruginosa [4], in the series on Escherichia coli [5], in the series with Staphylococcus aureus [6], in the series on Bacillus cereus [7], with Enterococcus faecalis [9] and in the series with Streptococcus agalactiae [10] was Active. In series [8], this molecule came in with a CAC of 12 mM.

With `CCCCCCCCCCCCCC[N+](C)(C)Cc1cc(C[N+](C)(C)C)cc(C[N+](C)(C)CCCCCCCCCCCCCC)c1.[Br-].[Br-].[Br-]`, the minimal inhibitory concentration (MIC) in the series with Bacillus cereus [1] was determined as 4 µM; in the series with Streptococcus agalactiae [2], 2 µM; in the series on Pseudomonas aeruginosa [3], 125 µM; with Enterococcus faecalis [11], 4 µM; with Escherichia coli [12] it was 8 µM; in the series on Staphylococcus aureus [13], 4 µM. Besides, the outcome in the series with Pseudomonas aeruginosa [4], with Escherichia coli [5], with Staphylococcus aureus [6], with Bacillus cereus [7], in the series on Enterococcus faecalis [9] and in the series on Streptococcus agalactiae [10] was Active. The CAC in series [8] was 0.61 mM.

For `CCCCCCCC[N+](C)(C)Cc1cc(C[N+](C)(C)C)cc(C[N+](C)(C)CCCCCCCC)c1`, the MIC with Bacillus cereus [1], with Streptococcus agalactiae [2], in the series on Pseudomonas aeruginosa [3], with Enterococcus faecalis [11], in the series on Escherichia coli [12] and in the series with Staphylococcus aureus [13] was above 250 µM each time. The outcome with Pseudomonas aeruginosa [4], in the series with Escherichia coli [5], in the series on Staphylococcus aureus [6], with Bacillus cereus [7], in the series on Enterococcus faecalis [9] and in the series on Streptococcus agalactiae [10] was Active.

With `CCCCCCCCCCCCCC[N+](C)(C)Cc1cc(C[n+]2ccccc2)cc(C[N+](C)(C)CCCCCCCCCCCCCC)c1.[Br-].[Br-].[Br-]`, the MIC was found to be 8 µM in the series on Bacillus cereus [1]; 4 µM in the series with Streptococcus agalactiae [2]; 63 µM with Pseudomonas aeruginosa [3]; 4 µM in the series with Enterococcus faecalis [11]; 16 µM with Escherichia coli [12]; 4 µM with Staphylococcus aureus [13]. In addition, the outcome in the series on Pseudomonas aeruginosa [4], in the series on Escherichia coli [5], with Staphylococcus aureus [6], in the series on Bacillus cereus [7], in the series on Enterococcus faecalis [9] and in the series on Streptococcus agalactiae [10] was Active. This molecule also came in with a CAC in series [8] of 0.6 mM.

`CCCCCCCC[N+](C)(C)Cc1cc(C[n+]2ccccc2)cc(C[N+](C)(C)CCCCCCCC)c1`: the MIC in the series with Bacillus cereus [1], in the series with Streptococcus agalactiae [2], with Pseudomonas aeruginosa [3], with Enterococcus faecalis [11], in the series on Escherichia coli [12] and in the series with Staphylococcus aureus [13] was above 250 µM each time. Besides, the result with Pseudomonas aeruginosa [4], in the series with Escherichia coli [5], with Staphylococcus aureus [6], in the series with Bacillus cereus [7], in the series with Enterococcus faecalis [9] and in the series with Streptococcus agalactiae [10] was Active.

As to `CCCCCCCCCC[N+](C)(C)Cc1cc(C[n+]2ccccc2)cc(C[N+](C)(C)CCCCCCCCCC)c1.[Br-].[Br-].[Br-]`, the MIC in the series on Bacillus cereus [1] worked out at 8 µM; in the series on Streptococcus agalactiae [2], 8 µM; in the series with Pseudomonas aeruginosa [3] it was 63 µM; in the series with Enterococcus faecalis [11] it was 8 µM; with Escherichia coli [12], 16 µM; with Staphylococcus aureus [13] it was 2 µM. In addition, the result in the series with Pseudomonas aeruginosa [4], with Escherichia coli [5], with Staphylococcus aureus [6], in the series with Bacillus cereus [7], with Enterococcus faecalis [9] and with Streptococcus agalactiae [10] was Active. This molecule also showed a CAC in series [8] of 14 mM.

Regarding `CCCCCCCCCCCCCCCC[N+](C)(C)Cc1cc(C[N+](C)(C)C)cc(C[N+](C)(C)CCCCCCCCCCCCCCCC)c1.[Br-].[Br-].[Br-]`, the MIC was 16 µM with Bacillus cereus [1]; 8 µM in the series on Streptococcus agalactiae [2]; above 250 µM in the series with Pseudomonas aeruginosa [3]; 32 µM in the series on Enterococcus faecalis [11]; 63 µM with Escherichia coli [12]; 16 µM in the series on Staphylococcus aureus [13]. Besides, the outcome with Pseudomonas aeruginosa [4], in the series with Escherichia coli [5], with Staphylococcus aureus [6], in the series with Bacillus cereus [7], in the series with Enterococcus faecalis [9] and in the series with Streptococcus agalactiae [10] was Active. In addition, the CAC in series [8] is 0.16 mM.

Take `NC[C@H]1O[C@H](O[C@H]2[C@H](O)[C@@H](O[C@H]3O[C@H](CO)[C@@H](O)[C@H](N)[C@H]3O)[C@H](N)C[C@@H]2N)[C@H](N)C[C@@H]1O` [TOBRAMYCIN]: the MIC with Pseudomonas aeruginosa [3] came to 6.4 µM (≈ 2.99 µg/mL).

In the case of `CCCCCCCCCCCCCCCC[N+](C)(C)Cc1cc(C[n+]2ccccc2)cc(C[N+](C)(C)CCCCCCCCCCCCCCCC)c1.[Br-].[Br-].[Br-]`, the MIC in the series with Bacillus cereus [1], in the series with Streptococcus agalactiae [2], in the series with Pseudomonas aeruginosa [3], in the series with Enterococcus faecalis [11], in the series with Escherichia coli [12] and in the series with Staphylococcus aureus [13] was above 250 µM each time. Moreover, the result in the series on Pseudomonas aeruginosa [4], with Escherichia coli [5], in the series on Staphylococcus aureus [6], in the series on Bacillus cereus [7], with Enterococcus faecalis [9] and with Streptococcus agalactiae [10] was Active. The CAC in [8] amounted to 0.18 mM.
